Results from PMC7127694 (Bioorganic & Medicinal Chemistry, 2009).
pEC50: −log10 of the molar value. Like-named read-outs stand apart in the source and are kept apart here.

Tests used:
BVDV = settings: read-out: EC50 (anti-BVDV); cited from earlier work
RSV = settings: read-out: EC50 (anti-RSV), cited from earlier work
[1] = test system: HSV-1 (Herpes Simplex virus, Type-1); format: cell-based
[2] = Cytotoxicity on host cells, mean over the host cell lines; settings: human, bovine, hamster, monkey

Compound: 3-[(dipropylaminoethyl)thio]-5H-1,2,4-triazino[5,6-b]indole [VP32947]
- pEC50 (BVDV): 7.40 to 7.52

Compound: O=c1n(Cc2nc3ccccc3n2CCCCO)c2cnccc2n1C1CC1 [BMS-433771]
- pEC50 (RSV; fusion inhibitor): 7.68

Compound: Brc1ccc(Cn2ccc3nc(-c4ccccc4)nc-3c2)cc1 [BPIP, 5-[4-bromobenzyl]-2-phenyl-5H-imidazo[4,5-c]pyridine]
- pEC50 (BVDV): 7.40 to 7.52

Compound: CN(C)CCCNc1ccc(/N=N/c2cccc([N+](=O)[O-])c2)cc1.Cl [Compound 2, N,N-Dimethyl-N′-[4-(3-nitrophenylazo)phenyl]propane-1,3-diamine]
- S. I. (selectivity index), HSV-1 [1]: 4.2

Compound: Fc1ccc(/N=N/c2ccc(NC[C@@H]3CCCN4CCCC[C@H]34)c3c2CCCC3)c(F)c1 [Compound 12]
- CC50 [2]: 21.5 µM

Compound: CN(C)CCCN(/N=N/c1cc(F)ccc1F)c1ccccc1 [Compound 29, 1-[1-(2,5-Difluorophenyl)-3-phenyltriazen-3-yl]-N,N-dimethyl-3-propanamine]
- CC50 [2]: 17.5 µM

Compound: O=C(Nc1ccccc1F)N[C@H]1N=C(c2ccccc2)c2ccccc2NC1=O [RSV-604]
- pEC50 (RSV; S-enantiomer): 6.05
